The subject of one data set is strain ENV425. Briefly: Growth studies on MTBE pathway intermediates. Format: cell-based, Nocardia.
The test system of data set [1] is M. vaccae JOB5. Briefly: Gas chromatography degradation assay, washed cells. The following applies: for % Degraded: 30 mg/l, 24 hours, OD550 1.0. It counts as cell-based, Mycobacterium vaccae. As for the experimental part: (§1) Propane-oxidizing microorganisms were grown as described above on either propane, isopropanol, ethanol or acetone, to a cell density of OD550≥0.5. The cells were then collected by centrifugation, washed with BSM, and suspended to an OD550 of 1.0. […] The vials were sealed with Teflon-lined septa and crimp seals and incubated with shaking (250 rpm) at 30° C. for at least 24 hr. Control samples were prepared by adding 50 μl of 10 mM HgCl2 to replicate vials. HgCl2 killed the microorganisms present in the vials allowing these vials to serve as controls. At pre-determined time points, 50 μl of 10 mM HgCl2 were added to the incubating sample to stop the reaction or a sub-sample of the incubating sample was removed for analysis. Degradation of MTBE, ETBE or tert-butyl alcohol (TBA) was measured by gas chromatography.
(§2) Gas chromatography was performed by first removing cells from the samples by centrifugation of the sample vial or the sub-sample. A pre-sealed 2-ml autosampler vial was partially evacuated by inserting a syringe needle through the septa and removing 500 μl of air. Five hundred μl of the clear supernatant fraction of the cell culture were then injected into the vial. The samples were then analyzed by injecting 1 μl of the sample directly into a Varians Model 3400 gas chromatograph equipped with a 30 m Vocol capillary column (Supelco) and a flame ionization detector. The column, injector, and detector were maintained isocratically at 80° C., 200° C., and 225° C., respectively. Standard curves of each compound were generated with aqueous standards of 10 ppm, 25 ppm, 50 ppm, and 100 ppm.

A further data set concerns ENV420. Briefly: Gas chromatography degradation assay, washed cells. It counts as cell-based. The following applies: 30 mg/l, 24 hours, OD550 1.0. The procedure:
as §1, §2

The test system of data set [2] is ENV425. Briefly: Gas chromatography degradation assay, washed cells. Format: cell-based, Nocardia. The conditions noted are these: 30 mg/l, 24 hours, OD550 1.0. The procedure: as §1, §2
The test system of data set [3] is M. vaccae JOB5. Briefly: [^14 C]MTBE assay. Format: cell-based, Mycobacterium vaccae. The following applies: propane-grown, OD550 1.0, overnight, 0.5 μCi [^14 C]MTBE (2 μM MTBE).
Data set [4] relates to ENV425. Briefly: [^14 C]MTBE assay. It counts as cell-based, Nocardia.
For data set [5], the system named is TXR mixed culture of naturally-occurring propane-oxidizing bacteria. Briefly: [^14 C]MTBE assay. Format: cell-based. The following applies: propane-grown, OD550 1.0, overnight, 0.5 μCi [^14 C]MTBE (2 μM MTBE).
The subject of data set [6] is ENV425. Briefly: Degradation of tetrahydrofuran. Format: cell-based, Nocardia. The conditions noted are these: propane-grown; OD550 2.0; 40 mg/L; 48 hours; room temperature. As for the experimental part: (§3) To test the ability of propane oxidizing bacteria to degrade other environmentally-significant ether pollutants, ENV425 and a mixed culture of propane oxidizing bacteria from a laboratory bioreactor were incubated with tetrahydrofuran, and the degradation of tetrahydrofuran was measured after 48 hours. Cells of ENV425 and a mixed bioreactor culture of propane-oxidizing bacteria (termed "TXR") were grown in BSM medium with propane as the sole source of carbon and energy, collected by centrifugation, washed with BSM, and suspended in BSM to an optical density at 550 nm of 2.0. Five ml of the cell suspensions were added to 15 mL serum vials, and the vials were sealed with Teflon-lined septa and crimp tops. Vials containing BSM but no cells served as controls. Tetrahydrofuran was injected through the septa to create a final liquid concentration of 40 mg/L. The vials were then incubated at room temperature for 48 hours and analyzed by gas chromatography of subsamples of the vial headspace gas. Gas chromatography was performed as described for MTBE analysis.

For data set [7], the system named is mixed culture of propane-oxidizing bacteria (TXR). Briefly: Degradation of tetrahydrofuran. The following applies: propane-grown; OD550 2.0; 40 mg/L; 48 hours; room temperature. It counts as cell-based. The procedure: as §3

Turning to `CC(O)(CO)C(=O)O` (stereo not shown) [2,3-dihydroxy-2-methyl propionic acid], the “growth of strain ENV425 on the substance” value in the data set with strain ENV425 is on record as “grows on”.
Still for that read-out and setting: with `CC(C)O` [2-propanol] the entry was “does occur”.
As for `CCOC(C)(C)C` [ETBE, ethyl-tert-butyl ether], the “% Degraded” value with M. vaccae JOB5 [1] (grown on isopropanol) came to 80%; in the data set with M. vaccae JOB5 [1] (grown on propane) it was 100%; in the data set on ENV420 (grown on ethanol), 31%; with ENV420 (grown on propane), 0%; in the data set with ENV425 [2] (grown on isopropanol), 14%; with ENV425 [2] (grown on propane) it was 26%.
As to `CC(C)(O)C(=O)O` [HIBA, 2-hydroxy isobutyric acid], in the data set with strain ENV425, the “growth of strain ENV425 on the substance” value is reported as “does not grow well”.
Take `CC(C)(C)O` [TBA, tertiary-butyl alcohol]: the “% Degraded” value came to 11% in the data set with M. vaccae JOB5 [1] (grown on isopropanol); 45% with M. vaccae JOB5 [1] (grown on propane); 56% in the data set with ENV420 (grown on ethanol); 10% in the data set with ENV420 (grown on propane); 0% in the data set on ENV425 [2] (grown on isopropanol); 23% in the data set with ENV425 [2] (grown on propane). The “degraded % of the added TBA” value in the data set on M. vaccae JOB5 [1] (propane-grown, within 24 hr) was found to be 100%.
For the molecule `[14CH3]O[14C]([14CH3])([14CH3])[14CH3]` [[^14 C]MTBE], the “Percent of added [^14 C] in particulate fraction” value (with M. vaccae JOB5 [3]; in data set [5]) was 0% each time. The “Percent of added [^14 C] in CO2 fraction” value in the data set with M. vaccae JOB5 [3] (mean (SD) of three) was 27(2) Percent; with ENV425 [4] (propane-grown, OD550 5.0, overnight, 0.5 μCi [^14 C]MTBE (2 μM MTBE)) it was 41%; in data set [5] (mean (SD) of three), 53(1) Percent. Also, the “Percent of added [^14 C] in liquid fraction” value is 71(2) Percent in the data set with M. vaccae JOB5 [3] (mean (SD) of three) and 46(1.5) Percent in [5] (mean (SD) of three). The “added [^14 C]MTBE converted to ^14 CO2” value in the data set with ENV425 [4] (env425) is on record as above 65%.
For `CC(=O)O` [acetic acid], the “growth of strain ENV425 on the substance” value in the data set on strain ENV425 is reported as “does occur”.
Regarding `CC(C)=O` [acetone], the “growth of strain ENV425 on the substance” value with strain ENV425 was “does occur”.
For `CC(=O)CO` [hydroxyacetone], in the data set on strain ENV425, the “growth of strain ENV425 on the substance” value is on record as “does occur”.
On to `CC(O)C(=O)O` (stereo not shown) [lactic acid], for which the “growth of strain ENV425 on the substance” value in the data set on strain ENV425 is given as “grows on”.
The same measure, in the same setting: the entry for `C=C(C)C(=O)O` [methacrylic acid] is “grows on”.
As to `C1CCOC1` [tetrahydrofuran], the tetrahydrofuran degraded (in the data set on ENV425 [6]; in data set [7]) was 100% throughout.

These data come from patent US6303366A, “Biodegradation of the gasoline oxygenates” (Envirogen, Inc., priority 1999, dated 2001).
